Results: paper PMC12313019, “Fibrotic lung ECM upregulates SDC4/integrin-αvβ1 interaction and the interfering peptide SDC4_87-131 and its derivative peptides alleviate pulmonary fibrosis” (Regenerative Biomaterials, 2025)

Legend:
[1] = tested on: BLM-induced PF, C57BL/6J mice; test: BLM-induced PF in mice: RT-PCR of lung tissue; format: in vivo, mouse; settings: BLM lung tissue
Protocol: After the mice were anesthetized (1% sodium pentobarbital 50 mg/kg was injected intraperitoneally), 150 μL of bleomycin (BLM, 5 mg/mL, BIO-000001) was inhaled into the lungs of the mice by tracheal inhalation instillation. One day later, the mice were randomly divided into model and drug treatment groups, and the mice in the control group were only subjected to saline inhalation.
Based on the dosage of SDC2 fragment peptide and our experimental results (Supplementary Figure S10A and B), the dosage schedule of SDC4_87-131 was set as follows: starting on the third day after BLM inhalation, 1 mg/kg, administered via trachea infusion once every three days. And Anti-SDC4(93-121) 8 mg/kg was administered on the third and tenth days (reference dosage).
Total RNA was extracted from cells or lung tissue (10 mg) using Trizol reagent, and mRNA was reverse transcribed into cDNA using HiScript® II QRT SuperMix for qPCR (Vazyme, #R223-01). Real-time fluorescence quantitative PCR (RT-PCR) was performed using Hieff® qPCR SYB Green Master Mix (YEASEN, #11201ES08) to obtain the Ct value. The 2^−ΔΔCt method was used to obtain the relative expression level of mRNA in each group. Primers (Table 1) were purchased from Sangon Biotech.

[2] = tested on: integrin-αvβ1, FAK/AKT and PKCα/NF-κB pathways in NIH3T3 cells; test: Western blot of signaling proteins in dECM-stimulated fibroblast; format: cell-based, mouse; settings: n=3
Protocol: Decellularized lung ECM (dECM) was prepared as described in previous study. 2 × 10^5 cells/mL NIH3T3 cells (mouse […], purchased from the Stem Cell Bank of the Chinese Academy of Sciences, Shanghai, China) were seeded on the dECM slices attached to the bottom of the culture dish and cultured in DMEM medium containing 0.5% fetal bovine serum (Gibco, Waltham, MA, USA) at 37°C and 5% CO2.
20 mg of lung tissue was extracted with RIPA lysis buffer (Roche International Ltd., Bermuda, USA), and the protein concentration was determined using a BCA protein detection kit (Roche). Protein samples were separated by 10% sodium dodecyl sulfate polyacrylamide gel (SDS-PAGE) electrophoresis and transferred to a PVDF membrane. After blocking, the PVDF membrane was incubated with primary antibodies for α-SMA, Integrin-αV, SDC4, Integrin-β1, p-Smad3, FAK, and p-FAK (CST, #19245, #4711, #12236S, #34971, #9520S, #3285S, and #3284S) at 4°C overnight, followed by incubation with secondary antibodies (CST, #7074P2), development with ECL reagent (SAB), and acquisition of images with a chemiluminescence imaging system (ChemiScope 5600).

[3] = tested on: cell migration; settings: ref [39]; cited from earlier work
Description: SDC4_87-131 is a synthetic peptide of the N87-M131 segment of the extracellular domain of SDC4 (Supplementary Figure S9A). […] Comparing the effects of ... || Syndecans and integrins collaboratively regulate FA formation and cell adhesion. PKCα is known to modulate integrin-mediated FAK phosphorylation and FA assembly. Inhibition of PKCα not only blocks NF-κB activation but also reduces FAK phosphorylation. Conversely, FAK activation can induce NF-κB activity, highlighting a bidirectional crosstalk between the SDC4/PKCα/NF-κB and integrin/FAK pathways.

With “Ac-NHIPERAGSGSQVPTEPKKLEENEVIPKRISPVEESEDVSNKVSM-NH2 [SDC4_87-131]” the “mRNA levels of α-SMA, FN, Col I, TGF-β1, IL-1β, IL-6 and TNF-α” value ([1]; 1 mg/kg ITD q3d, n=4–6) was “significantly reduced”, the “IL-6 downregulation vs C8” value ([1]; n=4–5) was “stronger effect in downregulating IL-6 than C8” and the “expression of integrin-β1” value ([2]; in vitro vs in vivo PF model) was “only reduced in the in vitro PF model”. For the same substance, the “expression level of integrin-αv” value ([2]; in vitro, 100 nM, 48 h) was “significantly reduced the expression level of integrin-αv”, the FAK/AKT phosphorylation ([2]; in vitro, 100 nM) was “inhibit FAK/AKT phosphorylation activation in both in vitro and in vivo experiments” and the “phosphorylation level of PKCα and nuclear content of NF-κB (p65)” value ([2]; in vitro, SDC4_87-131 100 nM, C8 20 nM, Anti-SDC4(93-121) 100 ng/mL) was “could downregulate”. For the same substance, the “cell adhesion and migration” value [3] was “reduces cell adhesion and migration” and the cell migration [3] was “can inhibit cell migration comparably to the exogenous full-length SDC4”.
